How the values were obtained:
NBP46 [1] = biological target: T1, NBP46 (Vigna unguiculata, UniProt Q9XFC9); test: phosphatase (phosphohydrolase) assay of NBP46; type: biochemical, Dolichos biflorus; conditions: in words; for hydrolysis of phosphate from substrate by NBP46 (phosphohydrolase activity): substrate specificity
Method: (§1) The sequence similarities found between NBP46 and the above enzymes prompted the testing of NBP46 for phosphohydrolase activity. The reactions were conducted in 300 μL of 60 mM MOPS, pH 6.8, containing 1 mM MgCl2 in a microtiter plate using a multichannel pipette. At various time points up to 4 minutes, 30 or 60 μL aliquots were removed and assayed for inorganic phosphate by a photometric microtiter assay (Drueckes, P., et al., Anal. Biochem. 230:173 (1995)). Conditions were chosen so that less than 10% of the total substrate was converted to product, and the initial velocity (v) was determined from the above rate measurements.
(§2) N-BP46 (201 ng/ml) was incubated at 25° C. in the presence of various concentrations of substrate in a final volume of 100 μl of 60 mM MOPS, pH 6.8, containing 1 mM MgCl2. The reactions were conducted in a microtiter plate using a multichannel pipette. At various time points, 30 μl aliquots were removed and assayed for inorganic phosphate by a photometric microtiter assay (Drueckes, P. et al. Anal. Biochem. 230:173 (1995)), modified by using four parts ammonium molybdate reagent to one part 10% ascorbate for the reagent mixture. Conditions were chosen so that less than 10% of the total substrate was converted to product.

NBP46 [2] = biological target: T1, NBP46; test: competitive binding assay with chitin as solid phase: inhibition of binding of 125I-NBP46 to chitin; parameters: species or system Dolichos biflorus; conditions: for inhibition of binding of 125I-NBP46 to chitin: relative inhibition, in words
Method: B. japonicum USDA110 Nod factor (^▪); R. sp. NGR234(NGRA) Nod factor (^▴); R. sp. NGR234(NGRB) Nod factor (∇); R. meliloti Nod factor (^●), N-acetylglucosamine (□), chitin disaccharide (^▾); chitin tetrasaccharide (Δ); chitin pentasaccharide (♦), chitin hexasaccharide (O).
Using chitin as a solid phase, a competitive binding assay was utilized to examine the carbohydrate specificity of this protein (FIG. 3).
Solid phase binding assays were conducted using iodinated NBP46 and purified shrimp chitin powder (Sigma Chemical Company, St. Louis, Mo.), which was N-acetylated prior to use with 15 mM acetic anhydride in 0.5 M NaHCO3 for one hour at room temperature. The assays were conducted in a final volume of 100 μl of 10 mM MOPS buffer, pH 7.2, containing 0.02% Tween-20 and 0.01% NaN3.

NBP46 [3] = biological target: T1, NBP46; test: competitive solid phase assay: inhibition of binding of 125I-NBP46 to HBG A+H-Sepharose; parameters: species or system Dolichos biflorus; conditions: up to 50 mM concentrations
Description: In a preferred embodiment, a competitive solid phase assay is used to measure NBP46 activity (Etzler, M. E., Glycoconj. J. 11:395 (1994)). This assay measures the ability of various ligands to inhibit the binding of labeled NBP46 protein to pronase-digested hog gastric mucin blood group A+H substance (HBG A+H) conjugated to Sepharose® (Quinn, J. M. & Etzler, M. E., Arch. Biochem. Biophys. 258:535 (1987)).
The monomeric nature of NBP46 in solution precluded the use of conventional precipitin or agglutination assays in determining the carbohydrate binding specificity of this lectin. Therefore a complex carbohydrate binding assay was employed (Etzler, M. E., Glycoconj. J. 11:395 (1994)).
Hog blood group A+H substance was isolated from hog gastric mucin (Etzler, M. E., Glyconj. J. 11:395 (1994)) and de-N-acetylated as described in Etzler, M. E., et al., Arch. Biochem. Biophys. 141:588 (1970). After incubation at room temperature overnight, binding was measured as previously described (Etzler, M. E., Glyconj. J. 11:395 (1994)).

[4] = substrate: Nc1ncnc2c1ncn2[C@@H]1O[C@H](COP(=O)(O)OP(=O)(O)O)[C@@H](O)[C@H]1O; test: phosphatase (phosphohydrolase) assay of NBP46; type: biochemical, Dolichos biflorus; conditions: other: 60 mM MOPS, pH 6.8, 1 mM MgCl2, 25.0 °C
Method: as §1, §2

## Nc1ncnc2c1ncn2[C@@H]1O[C@H](COP(=O)(O)OP(=O)(O)OP(=O)(O)O)[C@@H](O)[C@H]1O [ATP]
NBP46 [1]
  hydrolysis of phosphate from substrate by NBP46 (phosphohydrolase activity): catalyzes the hydrolysis of phosphate

## O=P(O)(O)OP(=O)(O)O [pyrophosphate]
NBP46 [1]
  hydrolysis of phosphate from substrate by NBP46 (phosphohydrolase activity): no activity

## CC(=O)NC1C(O)OC(CO)C(OC2OC(CO)C(OC3OC(CO)C(OC4OC(CO)C(OC5OC(CO)C(OC6OC(CO)C(O)C(O)C6NC(C)=O)C(O)C5NC(C)=O)C(O)C4NC(C)=O)C(O)C3NC(C)=O)C(O)C2NC(C)=O)C1O (stereo not drawn) [chitin hexasaccharide]
NBP46 [2]
  inhibition of binding of 125I-NBP46 to chitin: slightly better inhibitors than the disaccharide

## Nc1ccn([C@@H]2O[C@H](COP(=O)(O)OP(=O)(O)OP(=O)(O)O)[C@@H](O)[C@H]2O)c(=O)n1 [CTP]
NBP46 [1]
  hydrolysis of phosphate from substrate by NBP46 (phosphohydrolase activity): broad specificity for nucleotide triphosphates

## O=c1ccn([C@@H]2O[C@H](COP(=O)(O)OP(=O)(O)OP(=O)(O)O)[C@@H](O)[C@H]2O)c(=O)[nH]1 [UTP]
NBP46 [1]
  hydrolysis of phosphate from substrate by NBP46 (phosphohydrolase activity): broad specificity for nucleotide triphosphates

## Nc1ncnc2c1ncn2[C@@H]1O[C@H](COP(=O)(O)O)[C@@H](O)[C@H]1O [AMP]
NBP46 [1]
  hydrolysis of phosphate from substrate by NBP46 (phosphohydrolase activity): no activity

## CCCCCC/C=C\CCCCCCCCCC(=O)O [cis-vaccenic acid]
NBP46 [2]; concentrations up to 1.2 mM
  inhibition of NBP46 binding to chitin: No significant inhibition

## C[C@H](O)[C@@H](O)[C@@H](O)[C@H](O)C=O [L-fucose]
NBP46 [3]
  inhibition of binding of 125I-NBP46 to HBG A+H-Sepharose: no significant inhibition
NBP46 [2]; concentrations up to 50 mM
  inhibition of NBP46 binding to chitin: No significant inhibition

## Nc1ncnc2c1ncn2[C@@H]1O[C@H](COP(=O)(O)OP(=O)(O)O)[C@@H](O)[C@H]1O [ADP]
NBP46 [1]
  hydrolysis of phosphate from substrate by NBP46 (phosphohydrolase activity): catalyzes the hydrolysis of phosphate

## O=C[C@H](O)[C@@H](O)[C@H](O)[C@H](O)COP(=O)(O)O [glucose-6-phosphate]
NBP46 [1]
  hydrolysis of phosphate from substrate by NBP46 (phosphohydrolase activity): no activity

## CC(=O)N[C@H]1[C@H](O[C@H]2[C@H](O)[C@@H](NC(C)=O)C(O)O[C@@H]2CO)O[C@H](CO)[C@@H](O)[C@@H]1O (stereo partly drawn) [chitin disaccharide]
NBP46 [2]
  inhibition of binding of 125I-NBP46 to chitin: approximately ten-fold better inhibition than the monosaccharide

## CC(=O)N[C@@H]1[C@@H](O)[C@H](O[C@@H]2O[C@H](CO)[C@@H](O[C@@H]3O[C@H](CO)[C@@H](O[C@@H]4O[C@H](CO)[C@@H](O[C@@H]5O[C@H](CO)[C@@H](O)[C@H](O)[C@H]5NC(C)=O)[C@H](O)[C@H]4NC(C)=O)[C@H](O)[C@H]3NC(C)=O)[C@H](O)[C@H]2NC(C)=O)[C@@H](CO)O[C@H]1O [chitin pentasaccharide]
NBP46 [2]
  inhibition of binding of 125I-NBP46 to chitin: slightly better inhibitors than the disaccharide

## CC(=O)N[C@@H]1[C@@H](O)[C@H](O)[C@@H](CO)O[C@H]1O [N-acetyl-D-glocosamine]
NBP46 [1]; concentration range as worded
  phosphatase activity / Vmax of NBP46 after preincubation with ligand: increase in enzyme activity is also obtained with low millimolar concentrations
NBP46 [2]
  inhibition of binding of 125I-NBP46 to chitin: Inhibition of binding was obtained with high concentrations

## Nc1nc2c(ncn2[C@@H]2O[C@H](COP(=O)(O)OP(=O)(O)OP(=O)(O)O)[C@@H](O)[C@H]2O)c(=O)[nH]1 [GTP]
NBP46 [1]
  hydrolysis of phosphate from substrate by NBP46 (phosphohydrolase activity): broad specificity for nucleotide triphosphates

## CC(=O)N[C@H]1C(O)O[C@H](CO)[C@H](O)[C@@H]1O (stereo partly drawn) [N-acetyl-D-galactosamine]
NBP46 [3]
  inhibition of binding of 125I-NBP46 to HBG A+H-Sepharose: no significant inhibition

B1: NBP46 (Vigna unguiculata subsp. cylindrica) (protein)
chain: QYVGNSILLNHRKILPNQELLTSYAVIFDAGSSGSRVHVFNFDQNLDLLHIGNDLEFTKKIKPGLSSYADKPEKAAESLIPLLEEAEDVVPEELHPKTPLKLGATAGLRLLDGDAAEKILQAVREMFRNRSSLSVQPDAVSVIDGTQEGSYLWVTVNYLLGKLGKKFTKTVGVIDLGGASVQMAYAVSRNTAKNAPKPPQGEDPYMKKLVLKGKKYDLYVHSYLRYGNDAARVKIFKTTDGAASPCLLAGYEDIYRYSGESYNIYGPTSGANFNECRDLALQILRLNEPCSHENCTFGGIWDGGKGSGQKNLVVTSAFYYRSSEVGFVTPPNSKNRPLDFETAAKQACSLTFEEAKSTFPNVEKDKLPFVCVDFTYQYTLLVDGFGLDPEQEITVAEGIEYQDAIVETAWPLGTAIEAISSLPKFNRLMYFI
[4]
  Km: 615 µM

Source: US6465716B2, “Nod factor binding protein from legume roots” (The Regents of the University of California, priority 1997, dated 2002)
